Values joined by “and” are separate entries in the source; they are usually repeats but may differ in a detail not shown here. Equal entries are not always repeated. Residues, ends and D or L forms follow the SMILES beside them. *: point of attachment. NHOH = ON*
What was measured:
[1] = tested on: IM-9 cells (Multiple Myeloma); assay: Cell kill of IM-9 cells, CyQuant NF assay (DNA content); format: cell-based
Protocol: Compounds 6 and 9 were tested for their ability to kill IM-9 cells (Multiple Myeloma). Approximately 25,000 cells were plated in RPMI medium (4 mM glutamine). Compounds 6 and 9 were dissolved in PBS and pH adjusted to neutrality (200 mM stock). Compound 9 was added at 1 mM, 2 mM and 4 mM concentrations into separate wells. Compound 6 was added at 0.25 mM and 1 mM concentrations into separate wells. The cells were incubated for 48 and 96 hours in the presence of […], and 48 and 72 hours in the presence of compound 6. Cell number was determined with the CyQuant NF assay (measures DNA content) according to manufacturer's instruction (Invitrogen). For the sake of clarity, compounds 6 and 9 are reproduced below: […]

[2] = tested on: Panc1 cells (Pancreatic cancer); assay: Cell kill of Panc1 cells, CyQuant NF assay (DNA content); format: cell-based
Protocol: Compounds 6 and 9 were tested with Panc1 cells (Pancreatic cancer) plated in DMEM medium (2 mM glutamine). Approximately 30,000 live cells were plated. Compounds were dissolved in PBS and pH adjusted to neutrality (200 mM stock). Compound 9 was added at 1 mM, 2 mM and 4 mM concentrations into separate wells. Compound 6 was added at 0.25 mM and 1 mM concentrations into separate wells. The cells were incubated for 48 and 96 hours in the presence of compound 9, and 48 and 72 hours in the presence of compound 6. Cell number was determined with the CyQuant NF assay (measures DNA content) according to manufacturer's instruction (Invitrogen).

[3] = 1 mM compound, Day 2, DMEM medium (2 mM glutamine)

SMILES	Cells killed v. control ([1]; 1 mM compound, Day 4, RPMI medium (4 mM glutamine))	Cells killed v. control ([1]; 2 mM compound, Day 2, RPMI medium (4 mM glutamine)) [%]	Cells killed v. control ([1]; 2 mM compound, Day 4, RPMI medium (4 mM glutamine)) [%]	Cells killed v. control ([1]; 4 mM compound, Day 2, RPMI medium (4 mM glutamine)) [%]	Cells killed v. control ([1]; 4 mM compound, Day 4, RPMI medium (4 mM glutamine)) [%]	Cells killed v. control [2, 3] [%]	Cells killed v. control ([2]; 2 mM compound, Day 2, DMEM medium (2 mM glutamine)) [%]	Cells killed v. control ([2]; 2 mM compound, Day 4, DMEM medium (2 mM glutamine)) [%]	Cells killed v. control ([2]; 4 mM compound, Day 2, DMEM medium (2 mM glutamine)) [%]	Cells killed v. control ([2]; 4 mM compound, Day 4, DMEM medium (2 mM glutamine)) [%]	Cells killed v. control ([1]; 0.25 mM compound, Day 3, RPMI medium (4 mM glutamine)) [%]	Cells killed v. control ([1]; 1 mM compound, Day 2, RPMI medium (4 mM glutamine)) [%]	Cells killed v. control ([1]; 1 mM compound, Day 3, RPMI medium (4 mM glutamine)) [%]	Cells killed v. control ([2]; 0.25 mM compound, Day 2, DMEM medium (2 mM glutamine)) [%]	Cells killed v. control ([2]; 0.25 mM compound, Day 3, DMEM medium (2 mM glutamine)) [%]	Cells killed v. control ([2]; 1 mM compound, Day 3, DMEM medium (2 mM glutamine)) [%]
NC(=O)CCC(NC(=O)C(N)CCC(=O)O)C(=O)NO (stereo not drawn) [Compound 9, α-Glu-Gln (NHOH mimetic)] (H-Glu-Gln-{NHOH}; configuration not given here)	~58% and 58%	~29	~66	~61	~96	~0	~7	~9	~11	~55						
NC(=O)CC[C@H](NC(=O)CC[C@H](N)C(=O)O)C(=O)NO [Compound 6, β-Glu-Gln (NHOH mimetic)]						~66					~87	~83	~91	~32	~50	~75

— patent US20190309017A1, “GLUTAMINASE INHIBITORS” (Glutaminax, LLC, priority 2018, published 2019)
